Laboratory results taken from publication PMC5340193 (ChemMedChem, 2017).
Like-named read-outs stand apart in the source and are kept apart here. Starred links: 1 amine or outer side, 2 acyl side, 3 side chain; linkers in the order of their positions; H or OH if unused. Non-standard residues stand in square brackets, D forms with d. Residues, ends and D or L forms follow the SMILES beside them. His(π-(CH2)8Ph) = N[C@@H](Cc1cncn1CCCCCCCCc1ccccc1)C(=O)O; X2 = O=C([C@@H](N[*:1])[C@@H](CCc1ccccc1)CP(=O)(O)O)[*:2]; X1 = CC(C)[C@@H](CP(=O)(O)O)[C@H](N[*:1])C(=O)[*:2]; X3 = CC[C@@H](CP(=O)(O)O)[C@H](N[*:1])C(=O)[*:2]; Abu(4-PO3H2) = N[C@@H](CCP(=O)(O)O)C(=O)O

Legend:
[1] = test system: Plk1; conditions: cited from earlier work
[2] = biological target: full-length Plk1 (Homo sapiens, UniProt P53350); assay type: binding; conditions: for more potent than the parent pThr-containing peptide 5 and its Pmab-containing congener 7 / loss of potency of the Ser to Ala variants relative to 21 and 23: full-length Plk1 competitive ELISA
Chain of full-length Plk1 (P53350 whole entry): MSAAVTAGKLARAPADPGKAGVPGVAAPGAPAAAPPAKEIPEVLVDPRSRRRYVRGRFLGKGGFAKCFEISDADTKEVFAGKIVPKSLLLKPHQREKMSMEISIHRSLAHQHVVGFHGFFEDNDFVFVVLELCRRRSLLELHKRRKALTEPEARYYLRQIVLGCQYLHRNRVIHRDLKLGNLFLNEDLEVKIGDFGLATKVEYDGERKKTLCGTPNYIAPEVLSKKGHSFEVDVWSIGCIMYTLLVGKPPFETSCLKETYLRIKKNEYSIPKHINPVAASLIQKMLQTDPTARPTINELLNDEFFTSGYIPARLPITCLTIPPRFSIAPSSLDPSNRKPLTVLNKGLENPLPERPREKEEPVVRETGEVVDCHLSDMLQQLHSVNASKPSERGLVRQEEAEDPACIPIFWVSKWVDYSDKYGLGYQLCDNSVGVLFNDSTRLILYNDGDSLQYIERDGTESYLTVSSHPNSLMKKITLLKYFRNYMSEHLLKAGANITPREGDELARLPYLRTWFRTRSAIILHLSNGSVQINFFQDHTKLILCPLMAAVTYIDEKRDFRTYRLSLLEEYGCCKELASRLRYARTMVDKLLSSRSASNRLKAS

[3] = biological target: T1, Plk3 PBD (Homo sapiens, UniProt Q9H4B4); assay type: binding
T1 sequence (Q9H4B4 335-646 limits assumed): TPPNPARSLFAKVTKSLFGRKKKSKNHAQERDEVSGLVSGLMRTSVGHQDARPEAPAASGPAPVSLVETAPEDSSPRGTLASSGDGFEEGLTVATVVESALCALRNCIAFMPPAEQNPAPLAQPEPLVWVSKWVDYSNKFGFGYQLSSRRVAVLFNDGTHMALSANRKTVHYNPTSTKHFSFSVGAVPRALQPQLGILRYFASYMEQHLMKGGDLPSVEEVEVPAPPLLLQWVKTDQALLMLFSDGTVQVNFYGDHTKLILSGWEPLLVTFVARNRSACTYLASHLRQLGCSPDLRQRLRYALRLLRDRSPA

[4] = biological target: Plk1 PBD (Homo sapiens, UniProt P53350); assay type: binding
Chain of Plk1 PBD (P53350 326-603 limits assumed): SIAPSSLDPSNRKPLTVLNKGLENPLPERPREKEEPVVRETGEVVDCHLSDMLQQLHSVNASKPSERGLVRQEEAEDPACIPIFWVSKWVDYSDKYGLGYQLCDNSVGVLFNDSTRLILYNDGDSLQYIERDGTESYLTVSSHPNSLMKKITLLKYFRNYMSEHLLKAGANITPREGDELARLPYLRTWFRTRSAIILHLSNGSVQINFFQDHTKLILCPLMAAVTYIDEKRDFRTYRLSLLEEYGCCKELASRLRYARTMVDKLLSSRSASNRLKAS

[5] = biological target: T2, Plk2 PBD (Homo sapiens, UniProt Q9NYY3); assay type: binding
T2 sequence (Q9NYY3 355-685 limits assumed): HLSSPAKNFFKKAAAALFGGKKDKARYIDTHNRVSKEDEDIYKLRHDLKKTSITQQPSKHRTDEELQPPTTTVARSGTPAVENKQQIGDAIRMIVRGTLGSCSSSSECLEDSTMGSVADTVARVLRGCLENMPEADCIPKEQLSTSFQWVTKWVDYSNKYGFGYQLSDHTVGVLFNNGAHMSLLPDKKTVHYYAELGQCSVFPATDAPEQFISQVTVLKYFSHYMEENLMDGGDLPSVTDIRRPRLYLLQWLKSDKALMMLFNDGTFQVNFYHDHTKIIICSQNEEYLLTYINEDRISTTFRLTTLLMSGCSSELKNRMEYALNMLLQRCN

[6] = full-length Plk1, competitive ELISA, average ± SEM (n = 5)

CC(=O)N1CCC[C@H]1C(=O)N[C@@H](CC(C)C)C(=O)N[C@@H](Cc1cncn1CCCCCCCCc1ccccc1)C(=O)N[C@@H](CO)C(=O)N[C@H](C(N)=O)[C@@H](C)OP(=O)(O)O [compound 5]
IC50 values in competitive ELISA assays against Plk1 [1]: low-nanomolar

CC(=O)N1CCC[C@H]1C(=O)N[C@@H](CC(C)C)C(=O)N[C@@H](Cc1cncn1CCCCCCCCc1ccccc1)C(=O)N[C@@H](CO)C(=O)N[C@H](C(N)=O)[C@H](CP(=O)(O)O)C(C)C [compound 21] (Ac-PL[His(π-(CH2)8Ph)]S[X1]-NH2; N-terminus and C-terminus assumed)
IC50 [2]: 60 ± 20 nM
more potent than the parent pThr-containing peptide 5 and its Pmab-containing congener 7 [2]: approximately 3 fold
IC50 [3]: 1100 nM
IC50 [4]: 7 ± 1 nM
IC50 [5]: 360 ± 30 nM

CC(=O)N1CCC[C@H]1C(=O)N[C@@H](CC(C)C)C(=O)N[C@@H](Cc1cncn1CCCCCCCCc1ccccc1)C(=O)N[C@@H](CO)C(=O)N[C@H](C(N)=O)[C@@H](C)CP(=O)(O)O [compound 7, reference compound]
IC50 [3]: 4400 nM
inhibitory potency on replacement of the pThr residue in 5 with Pmab [1]: complete retention of inhibitory potency

CC(=O)N1CCC[C@H]1C(=O)N[C@@H](CC(C)C)C(=O)N[C@@H](Cc1cncn1CCCCCCCCc1ccccc1)C(=O)N[C@@H](CO)C(=O)N[C@@H](CCP(=O)(O)O)C(N)=O [compound 19] (Ac-PL[His(π-(CH2)8Ph)]S[Abu(4-PO3H2)]-NH2; N-terminus and C-terminus assumed)
IC50 [2]: 1200 ± 300 nM
IC50 [3]: 8800 nM
IC50 [4]: 11 ± 1 nM
IC50 [5]: 5400 nM

CC(=O)N1CCC[C@H]1C(=O)N[C@@H](CC(C)C)C(=O)N[C@@H](Cc1cncn1CCCCCCCCc1ccccc1)C(=O)N[C@@H](C)C(=O)N[C@H](C(N)=O)[C@H](CP(=O)(O)O)C(C)C [compound 24] (Ac-PL[His(π-(CH2)8Ph)]A[X1]-NH2; N-terminus and C-terminus assumed)
IC50 [2, 6]: 11000 ± 3000 nM
loss of potency of the Ser to Ala variants relative to 21 and 23 [2]: approximate two orders-of-magnitude loss of potency

CC[C@@H](CP(=O)(O)O)[C@H](NC(=O)[C@H](CO)NC(=O)[C@H](Cc1cncn1CCCCCCCCc1ccccc1)NC(=O)[C@H](CC(C)C)NC(=O)[C@@H]1CCCN1C(C)=O)C(N)=O [compound 20] (Ac-PL[His(π-(CH2)8Ph)]S[X3]-NH2; N-terminus and C-terminus assumed)
IC50 [2]: 200 ± 60 nM

CC(=O)N1CCC[C@H]1C(=O)N[C@@H](CC(C)C)C(=O)N[C@@H](Cc1cncn1CCCCCCCCc1ccccc1)C(=O)N[C@@H](C)C(=O)N[C@H](C(N)=O)[C@@H](CCc1ccccc1)CP(=O)(O)O [compound 25] (Ac-PL[His(π-(CH2)8Ph)]A[X2]-NH2; N-terminus and C-terminus assumed)
IC50 [2, 6]: 70000 ± 14000 nM
loss of potency of the Ser to Ala variants relative to 21 and 23 [2]: approximate two orders-of-magnitude loss of potency

CC(=O)N1CCC[C@H]1C(=O)N[C@@H](CC(C)C)C(=O)N[C@@H](Cc1cncn1CCCCCCCCc1ccccc1)C(=O)N[C@@H](CO)C(=O)N[C@H](C(N)=O)[C@@H](CCc1ccccc1)CP(=O)(O)O [compound 23] (Ac-PL[His(π-(CH2)8Ph)]S[X2]-NH2; N-terminus and C-terminus assumed)
more potent than the parent pThr-containing peptide 5 and its Pmab-containing congener 7 [2]: approximately 3 fold
IC50 [3]: 1200 nM
IC50 [4]: 4 ± 1 nM
IC50 [5]: 490 ± 50 nM
